Measured values: patent US20110230552A1, “USE OF DRONEDARONE FOR THE PREPARATION OF A MEDICAMENT FOR THE PREVENTION OF STROKE OR TRANSIENT ISCHEMIC ATTACK” (SANOFI-AVENTIS, priority 2008, published 2011)
Counter-ions that a name gives are not always drawn. Like-named read-outs stand apart in the source and are kept apart here.

Key:
[1] = tested on: patients with persistent atrial fibrillation; conditions: SAFE-T trial, cited from earlier work; for increasing the time to a recurrence of atrial fibrillation, versus placebo / effectiveness in increasing time to recurrence of atrial fibrillation relative to sotalol: P<0.001; for number of strokes per 100 patient-years of follow-up: calculated from page 1866 of Singh et al., placebo 1.91
[2] = tested on: patients with a history of atrial fibrillation or atrial flutter; experiment: Prospective, multinational, double-blind, randomized, placebo-controlled, parallel group trial (ATHENA) of dronedarone hydrochloride for prevention of stroke; type: in vivo, human
Description: Efficacy of dronedarone and its pharmaceutically acceptable salts versus placebo for the prevention of stroke was provided via dronedarone hydrochloride during a prospective, multinational, double-blind, randomized, multi-center, placebo-controlled, parallel group trial.
Eligible patients have a history of atrial fibrillation or atrial flutter and/or may be in normal sinus rhythm or in atrial fibrillation or flutter at the time of recruitment. Recruitment of patients was conducted taking into account the following inclusion criteria:
1) One of the following risk factors had to be present: • age equal to or greater than 70 years, • hypertension (taking antihypertensives of at least two different classes), • diabetes, • history of cerebral stroke (transient ischemic event or completed cerebral stroke) or of systemic embolism, • left atrial diameter greater than or equal to 50 mm measured by echocardiography, • left ventricular ejection fraction less than 40%, measured by two-dimensional echography; or • age equal to or above 70, or even above 75, possibly combined with at least one of the risk factors below: • hypertension (taking antihypertensives of at least two different classes), • diabetes, • history of cerebral stroke (transient ischemic event or completed cerebral stroke) or of systemic embolism, • left atrial diameter greater than or equal to 50 mm measured by echocardiography, • left ventricular ejection fraction less than 40%, measured by two-dimensional echography;
2) availability of one electrocardiogram within the last six months, showing that the patients was or is in atrial fibrillation/flutter,
3) availability of one electrocardiogram within the last six months, showing that the patients was or is in sinus rhythm.
Study drug treatment units (placebo or dronedarone hydrochloride corresponding to 400 mg of base) were such that each patient took one tablet in the morning during or shortly after breakfast and one tablet in the evening during or shortly after dinner.
The treatment duration depended on the time of recruitment of each patient in the trial and could be comprised from 12 months to 30 months.
Results were calculated using non-parametric Kaplan-Meier estimate.
Cox's proportional hazard model was used to estimate the hazard ratio also called relative risk.
Relative risk (RR) is the ratio between the risk of having a stroke (or transient ischemic attack (TIA)) for patients treated with dronedarone and the risk of having a stroke (or transient ischemic attack (TIA)) for patients treated with placebo.
Percentage of decrease of an event is calculated as follow: […]

[3] = on-treatment analysis of 30 months
[4] = versus placebo, Cox's proportional hazard model

CCCCc1oc2ccccc2c1C(=O)c1cc(I)c(OCCN(CC)CC)c(I)c1 [amiodarone]
increasing the time to a recurrence of atrial fibrillation, versus placebo [1]: significantly more effective than placebo | effectiveness in increasing time to recurrence of atrial fibrillation relative to sotalol ([1]; analysis according to the treatment actually received): four times as effective | number of strokes per 100 patient-years of follow-up [1]: 2.06 per 100 patient-years | effectiveness in increasing time to recurrence of atrial fibrillation relative to sotalol ([1]; intention-to-treat analysis): six times as effective as sotalol

CC(C)NCC(O)c1ccc(NS(C)(=O)=O)cc1 (stereo not shown) [sotalol]
increasing the time to a recurrence of atrial fibrillation, versus placebo [1]: significantly more effective than placebo | number of strokes per 100 patient-years of follow-up [1]: 2.71 per 100 patient-years

CCCCc1oc2ccc(NS(C)(=O)=O)cc2c1C(=O)c1ccc(OCCCN(CCCC)CCCC)cc1 [dronedarone hydrochloride, 2-n-butyl-3-[4-(3-di-n-butylaminopropoxy)benzoyl]-5-méthylsulfonamido-benzofuranne]
fatal stroke events reported ([2]; 2301 of 4628 patients on drug, 400 mg base twice daily, 12 to 30 months, placebo group 18 events): 11 | ischemic stroke events reported ([2]; 2301 of 4628 patients on drug, 400 mg base twice daily, 12 to 30 months, placebo group 49 events): 33 | stroke events reported ([2]; 2301 of 4628 patients on drug, 400 mg base twice daily, 12 to 30 months, placebo group 70 events): 45 | stroke or TIA events reported ([2]; 2301 of 4628 patients on drug, 400 mg base twice daily, 12 to 30 months, placebo group 80 events): 52 | ACS events reported (cardiovascular hospitalization for Acute Coronary Syndrome) ([2]; 2301 of 4628 patients on drug, 400 mg base twice daily, 12 to 30 months, placebo group 89 events): 62 | stroke, Acute Coronary Syndrome (ACS) or cardiovascular death events reported ([2]; 2301 of 4628 patients on drug, 400 mg base twice daily, 12 to 30 months, placebo group 216 events): 147 | stroke, Acute Coronary Syndrome (ACS) or death events reported ([2]; 2301 of 4628 patients on drug, 400 mg base twice daily, 12 to 30 months, placebo group 262 events): 196 | time course of effect on first stroke (FIG. 2, Kaplan Meier cumulative incidence curves) [2, 3]: occurred early and increased over time | time course of effect on first stroke or TIA (FIG. 1, Kaplan Meier cumulative incidence curves) [2, 3]: occurred early and increased over time | relative risk of cardiovascular hospitalization for Acute Coronary Syndrome [2, 4]: 0.70 | relative risk of fatal stroke [2, 4]: 0.62 | relative risk of ischemic stroke [2, 4]: 0.68 | relative risk of stroke [2, 4]: 0.65 | relative risk of stroke or TIA [2, 4]: 0.65 | relative risk of stroke, Acute Coronary Syndrome (ACS) or cardiovascular death [2, 4]: 0.68 | decrease of the relative risk of cardiovascular hospitalization for Acute Coronary Syndrome ([2]; versus placebo, x=1-RR): 30% | decrease of the relative risk of fatal stroke ([2]; versus placebo, x=1-RR): 38% | decrease of the relative risk of ischemic stroke ([2]; versus placebo, x=1-RR): 32% | decrease of the relative risk of stroke ([2]; versus placebo, x=1-RR): 35% | decrease of the relative risk of stroke or TIA ([2]; versus placebo, x=1-RR): 35% | decrease of the relative risk of stroke, Acute Coronary Syndrome (ACS) or cardiovascular death ([2]; versus placebo, x=1-RR): 32% | decrease of the relative risk of stroke, Acute Coronary Syndrome (ACS) or death ([2]; versus placebo, x=1-RR): 25%
